Measurements as given in BindingDB's records for doi:10.1021/jm800669s (Abbott Laboratories, 2008).

Target: Bcl-2-like protein 1 (Bcl-XL) (Homo sapiens) (UniProt Q07817)
Assay: Displacement of fluorescein labeled BAD peptide from Bcl-XL by fluorescence polarization assay

Sequence of Bcl-2-like protein 1 (Bcl-XL) (Homo sapiens) (Q07817 whole entry, looked up): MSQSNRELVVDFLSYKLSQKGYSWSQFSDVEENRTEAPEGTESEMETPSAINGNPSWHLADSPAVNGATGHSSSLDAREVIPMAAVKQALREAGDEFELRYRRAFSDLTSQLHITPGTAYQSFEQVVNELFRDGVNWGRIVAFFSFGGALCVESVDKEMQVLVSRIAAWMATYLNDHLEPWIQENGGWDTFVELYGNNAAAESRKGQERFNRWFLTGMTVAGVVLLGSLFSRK

SMILES	Ki [nM]
CN(C)CC[C@H](CSc1ccccc1)Nc1ccc(S(=O)(=O)NC(=O)c2ccc(N3CCN(Cc4ccccc4-c4ccc(Cl)cc4)CC3)cc2)cc1 [(R)-4-(4-((4'-Chlorobiphenyl-2-yl)methyl)piperazin-1-yl)-N-(4-(4-(dimethylamino)-1-(phenylthio)butan-2-ylamino)phenylsulfonyl)benzamide]	14
CN(C)CC[C@H](CSc1ccccc1)Nc1ccc(S(=O)(=O)NC(=O)c2ccc(N3CCN(CC4=C(c5ccc(Cl)cc5)CCC(C)(C)C4)CC3)cc2)cc1[N+](=O)[O-] [(R)-4-(4-((2-(4-Chlorophenyl)-5,5-dimethylcyclohex-1-enyl)methyl)piperazin-1-yl)-N-(4-(4-(dimethylamino)-1-(phenylthio)butan-2-ylamino)-3-nitrophenylsulfonyl)benzamide]	1.4
